These results are taken from patent publication US20060241172A1, “Benzodioxane and benzodioxolane derivatives and uses thereof” (Wyeth, priority 2005, published 2006).

Assay [1] has as its system male C57BL/6J mice and lean Zucker rats. Nature of the assay: Obesity Model A: acute food intake after overnight fast, oral dosing. The format is in vivo. The protocol:
To evaluate acute in vivo efficacy of various compounds, 7 weeks-old male C57BL/6J mice were obtained from The Jackson Laboratory (Bar Harbor, Me.) and 6 weeks-old lean Zucker rats were purchased from Charles River Laboratories (Wilmington, Mass.). Mice and rats were single housed in a temperature-controlled (25° C.) facility with a 12-h light/dark cycle. Animals were allowed normal chow diet (Rodent chow #5001, PharmaServ, Framingham, Mass.) and water ad libitum. After one week acclimation, animals were randomized to vehicle (saline) or treatment groups. Animals were fasted overnight (16 hrs) and orally dosed with vehicle or compounds. Thirty minutes after compound administration, animals were given a weighed amount of food, and food intake was recorded 30 minutes, 1 h, 2 h, 4 h, 7 h and 24 h after refeeding.

The target of assay [2] is T1, human 5-HT2C receptor (Homo sapiens, UniProt P28335).
T1 sequence (P28335 33-458): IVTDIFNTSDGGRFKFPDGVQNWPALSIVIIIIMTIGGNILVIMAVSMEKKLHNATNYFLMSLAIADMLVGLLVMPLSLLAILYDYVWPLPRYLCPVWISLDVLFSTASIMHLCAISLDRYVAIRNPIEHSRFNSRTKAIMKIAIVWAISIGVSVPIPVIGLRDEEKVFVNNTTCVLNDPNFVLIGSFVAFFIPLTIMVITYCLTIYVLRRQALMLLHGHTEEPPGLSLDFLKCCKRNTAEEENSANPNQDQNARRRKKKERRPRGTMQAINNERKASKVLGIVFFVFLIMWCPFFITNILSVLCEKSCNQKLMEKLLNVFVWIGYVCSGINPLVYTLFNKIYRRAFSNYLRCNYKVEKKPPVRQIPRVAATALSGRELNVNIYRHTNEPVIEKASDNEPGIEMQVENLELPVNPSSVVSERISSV
Nature of the assay: 5-HT2C receptor-stimulated calcium mobilization (FLIPR) in CHO cells. It counts as cell-based. The conditions noted are these: for Emax: CHO, read-out: 5-HT2C Function EMax (%); for EC50: read-out: 5-HT2C Function EC50. (In general: Calcium assays in cells follow changes in intracellular calcium, usually with a dye or a luminescent sensor.)

Assay [3] addresses T2, human 5-hydroxytryptamine-2C (h5-HT2C) receptor (Homo sapiens, UniProt P28335).
T2 construct: expressed in transfected cells; host or cells: CHO (Chinese Hamster Ovary) cells; membranes
T2 sequence (P28335 33-458): T1 sequence (P28335 33-458)
Put plainly: 5-HT2C binding: [125I]DOI displacement in membranes of transfected CHO cells. The conditions noted are these: read-out: 5-HT2C Binding Ki avg.

Assay [4] has as its target T3, human serotonin 5-HT2C receptor (Homo sapiens, UniProt P28335).
T3 construct: expressed in transfected cells; host or cells: CHO (Chinese Hamster Ovary) cells; membranes
T3 sequence (P28335 33-458): T1 sequence (P28335 33-458)
Put plainly: Saturation binding of [125I] DOI. The conditions noted are these: saturation binding with increasing concentrations of [125I] DOI; read-out: dissociation constant, KD. As to the method:
DOI. The reaction was initiated by the final addition of 100 μL of tissue suspension containing 50 μg of receptor protein. […] Test compounds were added in 20.0 μL. The mixture was incubated at room temperature for 60 min. The incubation was stopped by rapid filtration. The bound ligand-receptor complex was filtered off on a 96 well unifilter with a Packard® Filtermate 196 Harvester. The bound complex caught on the filter disk was dried in a vacuum oven heated to 60° C. and the radioactivity measured by liquid scintillation with 40 μL Microscint-20 scintillant in a Packard TopCount® equipped with six (6) photomultiplier detectors.

[5] abbreviates: 10 mpk oral, 0.5 hour after refeeding.
Setting [6] is: 10 mpk oral, 2 hours after refeeding.
[7] abbreviates: 10 mpk oral, 4 hours after refeeding.
The mark [8] stands for this setting: 30 mpk oral, 0.5 hour after refeeding.
The mark [9] stands for this setting: 30 mpk oral, 2 hours after refeeding.
The mark [10] stands for this setting: 30 mpk oral, 4 hours after refeeding.
Setting [11] is: 50 mpk oral, 0.5 hour after refeeding.
The mark [12] stands for this setting: 50 mpk oral, 2 hours after refeeding.
Setting [13] is: 50 mpk oral, 4 hours after refeeding.

Molecules are shown by their SMILES. Bounds are passed on as bounds.

In the case of `NCC1COc2cccc(-c3ccccc3C(F)(F)F)c2O1` (stereo not shown) [Compound I-4, ({8-[2-(Trifluoromethyl)phenyl]-2,3-dihydro-1,4-benzodioxin-2-yl}methyl)amine], the “% Reduction food intake (vs vehicle)” value in assay [1] (setting [5]) amounted to 9 ± 6%; in assay [1] (setting [6]), 5 ± 8%; in assay [1] (setting [7]), 2 ± 7%; in assay [1] (setting [8]) it was 29 ± 7%; in assay [1] (setting [9]), 14 ± 8%; in assay [1] (setting [10]), 0 ± 16%. In addition, the “% Reduction food intake (vs vehicle)” value in assay [1] (setting [11]) came to 56 ± 10%; in assay [1] (setting [12]), 27 ± 11%; in assay [1] (setting [13]), 8 ± 14%. Also, the maximum response (Emax) in assay [2] came out at 70%. For the same compound, the concentration for a half-maximal effect (EC50) in assay [2] is below 100 nM. The Ki in assay [3] is below 50 nM.
On to `NC[C@H]1COc2cccc(-c3c(Cl)cccc3Cl)c2O1` [Compound I-46, {[(2S)-8-(2,6-Dichlorophenyl)-2,3-dihydro-1,4-benzodioxin-2-yl]methyl}amine], for which the “% Reduction food intake (vs vehicle)” value in assay [1] (1 mpk oral, 0.5 hour after refeeding) is given as 0 ± 12%; in assay [1] (1 mpk oral, 2 hours after refeeding) it was 0 ± 6%; in assay [1] (1 mpk oral, 4 hours after refeeding), 1 ± 8%; in assay [1] (3 mpk oral, 0.5 hour after refeeding), 12 ± 8%; in assay [1] (3 mpk oral, 2 hours after refeeding), 11 ± 5%; in assay [1] (3 mpk oral, 4 hours after refeeding), 14 ± 7%. For the same compound, the “% Reduction food intake (vs vehicle)” value turned out to be 74 ± 7% in assay [1] (setting [5]); 68 ± 5% in assay [1] (setting [6]); 51 ± 4% in assay [1] (setting [7]); 78 ± 14% in assay [1] (setting [8]); 88 ± 8% in assay [1] (setting [9]); 82 ± 7% in assay [1] (setting [10]). In addition, the “% Reduction food intake (vs vehicle)” value was 100 ± 11% in assay [1] (setting [11]), 100 ± 5% in assay [1] (setting [12]) and 98 ± 4% in assay [1] (setting [13]). Also, the Emax in assay [2] was found to be 50%. Also, in assay [2], the EC50 is below 100 nM. Besides, the Ki in assay [3] is below 50 nM.
With `COc1cc(CC(C)N)c(OC)cc1I` (stereo not shown) [[^125I] DOI], the Kd in assay [4] came to 0.4 nM.

Usually Emax stands for the maximal effect, on the per cent scale that the assay sets. Broadly, the EC50 is the concentration that produces a half-maximal response. Usually Ki stands for a measure of affinity in units of concentration, obtained from inhibition or displacement. One may read the Kd as the free concentration of one partner at which half of the binding sites on the other are occupied at equilibrium, for simple one-to-one binding.
